Measured values from publication PMC12136037, “Type II kinase inhibitors that target Parkinson’s disease–associated LRRK2” (Science Advances, 2025).

How the values were obtained:
Test in all cases: DSF 100 kinase selectivity screen;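 further: compound tested at 20 µM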
Assay type in all cases: binding
[1] = molecular target: T1, ~100 representative kinases (Homo sapiens, UniProt Q96KB5); conditions: Protein TOPK; DSF; average of three replicates
T1 construct: Recombinant protein kinase domains with a concentration of 2 μM
T1 sequence (Q96KB5 1-322): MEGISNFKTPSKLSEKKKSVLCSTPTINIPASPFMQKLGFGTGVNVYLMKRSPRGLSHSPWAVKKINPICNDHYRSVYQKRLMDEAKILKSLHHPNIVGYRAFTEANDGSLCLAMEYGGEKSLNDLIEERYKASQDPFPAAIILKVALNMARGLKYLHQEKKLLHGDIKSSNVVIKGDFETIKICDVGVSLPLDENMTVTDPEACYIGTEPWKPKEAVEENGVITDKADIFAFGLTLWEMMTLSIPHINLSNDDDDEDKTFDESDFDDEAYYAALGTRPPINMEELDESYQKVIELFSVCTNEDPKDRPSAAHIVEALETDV
In short: (§1)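 Each kinase domain, at 2 μM, is mixed with 20 μM test compound and SYPRO Orange in Hepes (20 mM, pH 7.5) with 500 mM NaCl. Temperature is then raised at 3°C/min and fluorescence-monitored unfolding yields the melting temperature change, ΔTm in degrees Celsius.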

[2] = molecular target: T2, ~100 representative kinases (Homo sapiens, UniProt Q16654); conditions: protein PDK4; average of three replicates
T2 construct: Recombinant protein kinase domains with a concentration of 2 μM
T2 sequence (Q16654 whole entry, the tested form may be a part): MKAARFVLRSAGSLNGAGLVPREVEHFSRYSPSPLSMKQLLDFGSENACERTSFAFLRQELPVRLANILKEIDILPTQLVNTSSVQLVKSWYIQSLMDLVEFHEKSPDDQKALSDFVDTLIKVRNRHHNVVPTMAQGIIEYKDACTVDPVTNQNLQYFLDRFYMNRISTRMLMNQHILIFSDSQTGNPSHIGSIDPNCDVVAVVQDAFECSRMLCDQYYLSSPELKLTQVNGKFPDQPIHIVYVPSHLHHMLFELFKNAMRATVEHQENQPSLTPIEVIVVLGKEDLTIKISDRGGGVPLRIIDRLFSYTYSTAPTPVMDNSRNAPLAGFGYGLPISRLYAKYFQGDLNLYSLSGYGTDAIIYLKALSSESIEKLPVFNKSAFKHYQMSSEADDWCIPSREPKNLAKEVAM
In short: as §1

[3] = molecular target: T3, ~100 representative kinases (Homo sapiens, UniProt Q9BRS2); conditions: Protein RIOK1; DSF; average of three replicates
T3 construct: Recombinant protein kinase domains with a concentration of 2 μM
T3 sequence (Q9BRS2 1-568): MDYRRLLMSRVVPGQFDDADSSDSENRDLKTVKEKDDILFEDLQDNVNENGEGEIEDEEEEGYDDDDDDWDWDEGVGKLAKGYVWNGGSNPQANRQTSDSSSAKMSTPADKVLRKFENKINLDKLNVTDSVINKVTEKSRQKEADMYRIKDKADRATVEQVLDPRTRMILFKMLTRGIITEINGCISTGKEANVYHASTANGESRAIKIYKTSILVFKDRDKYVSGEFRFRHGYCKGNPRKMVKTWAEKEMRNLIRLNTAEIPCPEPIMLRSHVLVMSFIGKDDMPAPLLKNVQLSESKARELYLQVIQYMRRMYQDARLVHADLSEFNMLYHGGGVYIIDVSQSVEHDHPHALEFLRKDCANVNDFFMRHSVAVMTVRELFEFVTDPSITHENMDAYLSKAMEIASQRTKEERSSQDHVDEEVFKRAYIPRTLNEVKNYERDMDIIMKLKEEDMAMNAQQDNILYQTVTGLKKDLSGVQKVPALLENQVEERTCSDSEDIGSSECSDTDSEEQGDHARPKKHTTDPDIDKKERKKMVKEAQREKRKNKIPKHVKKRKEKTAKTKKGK
In short: as §1

SMILES	dTm [1] [K]	dTm [2] [K]	dTm [3] [K]
Cc1ccc(C(=O)Nc2ccc(CN3CCN(C)CC3)c(C(F)(F)F)c2)cc1C#Cc1cnc2cccnn12 [Ponatinib, reference compound]	2.32	-0.09	1.86
Cn1cc(-c2c[nH]c3ncnc(N4CCOCC4)c23)cc1C#N [PFE-360]	0.66	-0.55	-0.58
Cc1ccc(C(=O)Nc2ccc(CN3CCN(C)CC3)c(C(F)(F)F)c2)cc1C#Cc1cnc2[nH]ncc2c1 [GZD-824, reference compound]	4.33	-0.28	2.49
CCNc1nc(Nc2cc(F)c(C(=O)N3CCOCC3)cc2OC)ncc1C(F)(F)F [GNE-7915]	0.03	-0.0168	-0.09
C[C@@H]1CN(c2cc(-c3n[nH]c4ccc(OC5(C)CC5)cc34)ncn2)C[C@H](C)O1 [MLi2]	0.0743	-0.0742	-1.66
Cc1ccc(C(=O)Nc2ccc(CN3CCN(C)CC3)c(C(F)(F)F)c2)cc1C#Cc1c[nH]c2ncnc(N3CCOCC3)c12 [Compound 1]	2.13	-0.54	4.09
